Assay results: US20190364896A1, “SYNERGISTIC WEED CONTROL FROM APPLICATIONS OF PYRIDINE CARBOXYLIC ACID HERBICIDES AND ALS INHIBITORS” (Dow AgroSciences LLC, priority 2014, published 2019)
Where “and” joins values, the source holds several entries; their conditions need not be identical. Equal values may be shown once. Read-outs that look alike come from different tables or passages of the source.

Assays:
Assay in all cases: Postemergence herbicidal activity, greenhouse trial (visual injury 0-100%)
Format in all cases: in vivo
[1] = tested on: kochia (Kochia scoparia, KCHSC); conditions: Bassia scoparia, post-emergence, read-out: % visual injury Obs
Method in brief: (§1)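 Read-out is a visual 0–100% injury score against solvent-blank-sprayed controls, taken 20-22 d after treatment; expected mixture effects came from Colby's equation. Two-way combinations in 1.5% v/v crop oil concentrate were sprayed at 187 L/ha onto plants at the second or third true leaf stage.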

[2] = tested on: wild buckwheat (Polygonum convolvulus, POLCO); conditions: Fallopia convolvulus, post-emergence, read-out: % visual injury Obs
Method in brief: as §1

[3] = tested on: thistle (Cirsium arvense, CIRAR)
Method in brief: as §1

[4] = tested on: nutsedge (Cyperus esculentus, CYPES)
Method in brief: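 Greenhouse-grown plants at the second to third true leaf stage were sprayed with two-way mixtures in 1.5% v/v Agri-dex crop oil concentrate at 187 L/ha; rates in g ae/ha for component (a) and g ai/ha for component (b). Injury scored visually 0–100% versus solvent-blank controls after 20–22 d, with expected mixture effects from Colby's equation.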

[5] = tested on: wild pansy (Viola tricolor, VIOTR); conditions: Viola tricolor, post-emergence, read-out: % visual injury Obs
Method in brief: as §1

[6] = tested on: velvetleaf (Abutilon theophrasti, ABUTH)
[7] = tested on: sunflower (Helianthus annuus, HELAN)

Nc1c(F)c(-c2ccc3cc[nH]c3c2F)nc(C(=O)O)c1Cl [Compound 1]
pest or weed control at 5 g/ha ([1]; 5 g ae/ha): 65% | pest or weed control at 10 g/ha ([1]; 10 g ae/ha): 60% | pest or weed control at 5 g/ha ([1]; KCHSC, Compound 1 5 g ae/ha): 60% | pest or weed control at 10 g/ha ([1]; KCHSC, Compound 1 10 g ae/ha): 60% | pest or weed control at 5 g/ha ([2]; 5 g ae/ha): 70% | pest or weed control at 5 g/ha ([2]; POLCO, Compound 1 5 g ae/ha): 65% | % visual injury Obs ([3]; CIRAR, Compound 1 5 g ae/ha): 10% | pest or weed control at 5 g/ha ([3]; Cirsium arvense, post-emergence, 5 g ae/ha, read-out: % visual injury Obs): 10% | % visual injury Obs ([4]; CYPES, Compound 1 5 g ae/ha): 10% | pest or weed control at 5 g/ha ([4]; Cyperus, post-emergence, 5 g ae/ha, read-out: % visual injury Obs): 10% | pest or weed control at 10 g/ha ([5]; 10 g ae/ha): 10% | pest or weed control at 10 g/ha ([5]; VIOTR, Compound 1 10 g ae/ha): 10% | % visual injury Obs ([6]; 5 g ae/ha): 50% and 70% | % visual injury Obs ([6]; 10 g ae/ha): 60% | % visual injury Obs ([6]; ABUTH, Compound 1 5 g ae/ha): 70% | % visual injury Obs ([7]; 5 g ae/ha): 90% | % visual injury Obs ([7]; 10 g ae/ha): 90% | % visual injury Obs ([7]; HELAN, Compound 1 5 g ae/ha): 70%

CCCOc1nn(C(=O)NS(=O)(=O)c2ccccc2C(=O)OC)c(=O)n1C [Propoxycarbazone, propoxycarbazone]
pest or weed control at […] ([1]; 7.5 g ai/ha): 30% | pest or weed control at […] ([2]; 7.5 g ai/ha): 10% | pest or weed control at […] ([3]; Cirsium arvense, post-emergence, 7.5 g ai/ha, read-out: % visual injury Obs): 75% | pest or weed control at […] ([4]; Cyperus, post-emergence, 7.5 g ai/ha, read-out: % visual injury Obs): 75% | pest or weed control at […] ([5]; 7.5 g ai/ha): 20% | % visual injury Obs ([6]; 7.5 g ai/ha): 50% | % visual injury Obs ([7]; 7.5 g ai/ha): 85%
